In test [1] the test system is MCF7. Kind of test: Antiproliferative activity against estrogen receptor dependent human MCF7 cells after 72 hrs by MTT assay. It is filed as functional, cell-based. Particulars: MCF7, 72 h. For orientation: Tetrazolium assays rely on reduction of a dye to a coloured formazan, in cell work by metabolically active cells.
The subject of test [2] is MDA-MB-231. Description: Antiproliferative activity against hormone independent human MDA-MB-231 cells upto 100 nM after 72 hrs by MTT assay. It is filed as functional, cell-based.
Test [3] relates to Ishikawa. Description: Estrogenic stimulatory activity in human Ishikawa cells assessed as alkaline phosphatase activity at 1 uM after 72 hrs in absence of estradiol. It is filed as functional.
Test [4] deals with MCF7. Kind of test: Antiproliferative activity against estrogen receptor dependent human MCF7 cells at 10 uM after 72 hrs by LDH assay. The test is classed as functional.
The target of another test is T1, Estrogen receptor (Homo sapiens, UniProt P03372).
T1 sequence (P03372 whole entry): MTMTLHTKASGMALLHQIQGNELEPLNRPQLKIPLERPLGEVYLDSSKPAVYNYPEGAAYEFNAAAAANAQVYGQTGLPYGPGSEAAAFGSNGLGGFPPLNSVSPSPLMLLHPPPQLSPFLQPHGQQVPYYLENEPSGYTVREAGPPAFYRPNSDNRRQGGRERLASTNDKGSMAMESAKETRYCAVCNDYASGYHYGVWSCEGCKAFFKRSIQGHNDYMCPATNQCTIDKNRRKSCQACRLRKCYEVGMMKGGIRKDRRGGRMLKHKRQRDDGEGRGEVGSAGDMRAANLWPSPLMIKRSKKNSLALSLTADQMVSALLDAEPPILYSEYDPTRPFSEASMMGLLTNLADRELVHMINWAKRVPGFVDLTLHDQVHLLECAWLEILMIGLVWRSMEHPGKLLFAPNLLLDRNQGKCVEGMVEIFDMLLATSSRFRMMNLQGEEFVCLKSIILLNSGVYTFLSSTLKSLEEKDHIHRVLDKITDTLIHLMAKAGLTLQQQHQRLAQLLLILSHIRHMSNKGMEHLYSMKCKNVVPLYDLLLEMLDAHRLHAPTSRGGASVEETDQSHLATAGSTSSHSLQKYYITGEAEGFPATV
Description: biochemical.

Test [5] deals with MDA-MB-231. Kind of test: Antiproliferative activity against hormone independent human MDA-MB-231 cells after 72 hrs by MTT assay. The test is classed as functional, cell-based. Particulars: MDA-MB-231, 72 h.
The subject of test [6] is Ishikawa. Description: Antiestrogenic activity in human Ishikawa cells assessed as inhibition of estrogen-induced alkaline phosphatase activity after 72 hrs. The test is classed as functional, cell-based.
In the next test the target is Estrogen receptor beta (Homo sapiens, UniProt Q92731). Kind of test: biochemical.

The source made the active and inactive calls. No cut-off for these calls is given here. Where only a bound is given, the exact number is not on record here.

Chain of Estrogen receptor beta (Q92731 whole entry): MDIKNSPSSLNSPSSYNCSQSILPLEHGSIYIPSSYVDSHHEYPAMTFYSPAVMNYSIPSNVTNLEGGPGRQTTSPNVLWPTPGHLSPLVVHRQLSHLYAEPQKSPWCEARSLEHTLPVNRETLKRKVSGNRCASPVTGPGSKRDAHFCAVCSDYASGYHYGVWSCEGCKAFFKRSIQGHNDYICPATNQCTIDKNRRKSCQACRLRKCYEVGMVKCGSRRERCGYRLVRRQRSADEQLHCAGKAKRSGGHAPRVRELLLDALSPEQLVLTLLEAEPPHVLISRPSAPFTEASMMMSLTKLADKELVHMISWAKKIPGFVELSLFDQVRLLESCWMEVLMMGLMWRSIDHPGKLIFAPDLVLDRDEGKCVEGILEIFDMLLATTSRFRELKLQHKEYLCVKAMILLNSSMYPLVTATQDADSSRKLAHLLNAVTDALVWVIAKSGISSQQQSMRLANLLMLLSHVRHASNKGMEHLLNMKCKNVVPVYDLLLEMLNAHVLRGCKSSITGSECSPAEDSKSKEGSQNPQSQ
Description for Estrogen receptor beta: Displacement of fluorescein labeled estradiol from human recombinant ERbeta expressed in baculovirus infected insect cells by fluorescence polarization assay

Consider `CC/C(=C(\c1ccccc1)c1ccc(OCCN(C)C)cc1)c1ccccc1` [TAMOXIFEN], for which, in the test on MCF7 [1], the IC50 worked out at 4.12 µM. In addition, in the test with MDA-MB-231 [2], the result was inactive. For the same molecule, in the test on Ishikawa [3], the Activity was 16.5%.

Consider `Oc1ccc(C2=CCCOc3ccccc32)cc1`, for which the Activity in the test on MCF7 [4] is 17%.

Consider `Oc1ccc(C2=C(c3ccc(OCCN4CCCC4)cc3)c3ccc(F)cc3OCC2)cc1`, for which the IC50 worked out at 0.0214 µM with MCF7 [1]; 0.0104 µM against Estrogen receptor; 6.75 µM in the test on MDA-MB-231 [5]; 0.194 µM in the test with Ishikawa [6]; 0.0007 µM on Estrogen receptor beta. In addition, the result in the test with MDA-MB-231 [2] was inactive. Also, in the test with Ishikawa [3], the Activity is listed as 9.7%.

`Oc1ccc(C2=C(c3ccc(OCCN4CCCC4)cc3)CCOc3cc(F)ccc32)cc1`: the IC50 with MCF7 [1] amounted to 6.5 µM; against Estrogen receptor, 0.00557 µM; in the test with Ishikawa [6] it was 0.216 µM; at Estrogen receptor beta, 0.0173 µM. The result in the test on MDA-MB-231 [2] was inactive. Further, the Activity in the test with Ishikawa [3] is on record as 23%.

For `Oc1ccc(C2=C(c3ccc(OCCN4CCCC4)cc3)c3ccc(O)cc3OCC2)cc1`, the IC50 in the test on MCF7 [1] amounted to 0.0119 µM; on Estrogen receptor it was 0.0084 µM; in the test with MDA-MB-231 [5] it was 2.6 µM; with Ishikawa [6] it was 0.0208 µM; against Estrogen receptor beta, 0.0029 µM. For the same molecule, the Activity in the test with MCF7 [4] was found to be 11%; in the test with Ishikawa [3], 6%. The outcome in the test with MDA-MB-231 [2] was inactive.

Turning to `c1ccc(C2=C(c3ccc(OCCN4CCCC4)cc3)c3ccccc3OCC2)cc1`, the IC50 with MCF7 [1] is 1.58 µM. In the test with MCF7 [4], this molecule registered an Activity of 8%. Besides, the outcome in the test on MDA-MB-231 [2] was inactive.

As to `CN(C)CCOc1ccc(C2=C(c3cccs3)CCOc3ccccc32)cc1`, in the test with MCF7 [1], the IC50 was 16.7 µM. In addition, the outcome in the test with MDA-MB-231 [2] was inactive.

In the case of `Oc1cccc(C2=C(c3ccc(OCCN4CCCC4)cc3)c3ccc(F)cc3OCC2)c1`, the figures for the IC50 in the test on MCF7 [1], against Estrogen receptor and at Estrogen receptor beta were 0.359 µM, 0.014 µM and 0.006 µM, respectively. Also, the outcome with MDA-MB-231 [2] was inactive.

As for `Fc1ccc(C2=C(c3ccc(OCCN4CCCC4)cc3)c3ccc(F)cc3OCC2)cc1`, the IC50 came to 0.45 µM with MCF7 [1], 0.126 µM on Estrogen receptor and 0.262 µM against Estrogen receptor beta. In addition, the result in the test with MDA-MB-231 [2] was inactive.

The molecule `CCC(=C(c1ccc(O)cc1)c1ccc(OCCN(C)C)cc1)c1ccccc1` had an IC50 in the test on MCF7 [1] of 0.107 µM. Besides, the result in the test on MDA-MB-231 [2] was inactive.

`COc1ccc2c(c1)OCCC(c1ccc(O)cc1)=C2c1ccc(OCCN2CCCCC2)cc1` had an IC50 with MCF7 [1] of 1.54 µM. In addition, the outcome in the test with MDA-MB-231 [2] was inactive.

In the case of `Fc1ccc2c(c1)OCCC(c1ccccc1)=C2c1ccc(OCCN2CCCC2)cc1`, the half-maximal inhibitory concentration (IC50) with MCF7 [1] was 1.87 µM; against Estrogen receptor, 0.0162 µM; at Estrogen receptor beta, 0.031 µM. In addition, in the test with MDA-MB-231 [2], the result was inactive.

For `CS(=O)(=O)c1ccc(C2=C(c3ccc(OCCN4CCCC4)cc3)c3ccc(F)cc3OCC2)cc1`, the IC50 in the test with MCF7 [1] is 4.56 µM; against Estrogen receptor it was more than 15 µM; against Estrogen receptor beta it was more than 15 µM. In addition, the outcome in the test with MDA-MB-231 [2] was inactive.

`COc1ccc2c(c1)OCCC=C2c1ccc(O)cc1` returned an Activity in the test on MCF7 [4] of 17%.

With `Oc1ccc(C2=C(c3ccc(OCCN4CCCCC4)cc3)c3ccc(F)cc3OCC2)cc1`, the IC50 with MCF7 [1] is 0.156 µM; on Estrogen receptor, 0.0065 µM; against Estrogen receptor beta it was 0.00878 µM. Moreover, in the test with MDA-MB-231 [2], the result was inactive.

Usually IC50 stands for the concentration that gives 50% inhibition.

For the origin of these results see ChEMBL document CHEMBL1152252, “Synthesis, biological evaluation, structural-activity relationship, and docking study for a series of benzoxepin-derived estrogen receptor modulators” (Bioorg Med Chem, 2008).
